The target of assay [1] is human inducible NOS (iNOS) (Homo sapiens (Human), UniProt P35228). Description: Human iNOS enzyme assay, radiometric. In kind it is biochemical. The text has this: Standard deviations were 10% or less.
Assay [2] addresses human neuronal constitutive NOS (nNOS) (Homo sapiens (Human), UniProt P29475). Kind of assay: Human nNOS enzyme assay, radiometric [3H]L-arginine to [3H]L-citrulline.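 Note: recombinant human nNOS expressed in baculovirus-infected Sf9 cells, enzyme activity measured radiometrically as turnover of [3H]L-arginine into [3H]L-citrulline.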
Experimental: (§1) In a radiometric method, NO synthase activity was determined by measuring the conversion of [^3H]L-arginine to [^3H]L-citrulline.
(§2) The total volume of the reaction mixture was 150 μL in every well. […] The reaction was stopped by adding 20 μL of ice-cold buffer containing 100 mM HEPES, 3 mM EGTA, 3 mM EDTA, pH=5.5. [^3H]L-citrulline was separated by DOWEX (ion-exchange resin DOWEX 50 W X 8-400, SIGMA) and the DOWEX was removed by spinning at 12,000 g for 10 min in the centrifuge. […] All assays were performed at least in duplicate. Standard deviations were 10% or less.
For assay [3], the target named is human endothelial constitutive NOS (eNOS) (Homo sapiens (Human), UniProt P29474). Kind of assay: Human eNOS enzyme assay, radiometric.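 Note: recombinant human eNOS expressed in baculovirus-infected Sf9 cells, activity read as [3H]L-arginine turned into [3H]L-citrulline, the product isolated on ion-exchange resin.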
Experimental: as §1, §2
The mark [4] stands for this setting: read-out: nNOSh, Table I, human NOS, dihydrochloride or monohydrochloride salts.
The mark [5] stands for this setting: read-out: eNOSh, Table I, human NOS, dihydrochloride or monohydrochloride salts.
The mark [6] stands for this setting: read-out: nNOSh, Table II, human NOS, dihydrochloride or monohydrochloride salts.
[7] abbreviates: read-out: eNOSh, Table II, human NOS, dihydrochloride or monohydrochloride salts.

The structures appear in SMILES notation. Like-named read-outs stand apart in the source and are kept apart here.

On to `N=C(Nc1ccc2ccn(CCN3CCCCC3)c2c1)c1cccs1` [Compound 37], for which the IC50 turned out to be 21 µM in assay [1] (Table 2b, read-out: Human iNOS); 0.49 µM in assay [2] (read-out: Human nNOS, Table 2b); 3.8 µM in assay [3] (read-out: Human eNOS, Table 2b).
`CN1CCC(c2c[nH]c3ccc(NC(=N)c4cccs4)cc23)CC1` [Compound 43, N-(3-(1-methylpiperidin-4-yl)-1H-indol-5-yl)thiophene-2-carboximidamide]: the IC50 in assay [1] (Table I, human NOS, dihydrochloride or monohydrochloride salts, read-out: iNOSh) came out at 58 µM; in assay [2] (setting [4]), 1.88 µM; in assay [3] (setting [5]), 32.6 µM. Moreover, the e/n in assay [2] (Table I, ratio eNOSh/nNOSh) is 17.
`CN(C)CCc1c[nH]c2ccc(CNC(=N)c3cccs3)cc12` [Compound 59, N-((3-(2-(dimethylamino)ethyl)-1H-indol-5-yl)methyl)thiophene-2-carboximidamide] came in with an e/n in assay [2] of 7. Moreover, the results for the IC50 in assay [2] (read-out: nNOSh) and in assay [3] (setting [5]) were 12.8 µM and 86.2 µM, respectively.
Take `CCN1CCC(c2c[nH]c3ccc(NC(=N)c4cccs4)cc23)CC1` [Compound 62, N-(3-(1-ethylpiperidin-4-yl)-1H-indol-5-yl)thiophene-2-carboximidamide]: in assay [2] (Table I, ratio eNOSh/nNOSh), the e/n is given as 24. Also, the IC50 in assay [2] (setting [4]) is 2.43 µM; in assay [3] (setting [5]) it was 57.3 µM.
For `CN1CC=C(c2c[nH]c3ccc(NC(=S)NC(=O)c4ccccc4)cc23)CC1` [Compound 64, N-(3-(1-methyl-1,2,3,6-tetrahydropyridin-4-yl)-1H-indol-5-ylcarbamothioyl)benzamide] the same measures were 3, 14 µM and 43 µM.
For `CCSC(=N)Nc1ccc2[nH]cc(C3=CCN(C)CC3)c2c1` [Compound 67, Ethyl 3-(1-methyl-1,2,3,6-tetrahydropyridin-4-yl)-1H-indol-5-ylcarbamimidothioate], in that order: 22, 4.8 µM and 105 µM.
Consider `N=C(Nc1ccc2[nH]cc(C3CCN(C(=O)c4ccccc4)CC3)c2c1)c1cccs1` [Compound 70, N-(3-(1-benzoylpiperidin-4-yl)-1H-indol-5-yl)thiophene-2-carboximidamide], for which, in assay [2] (Table I, ratio eNOSh/nNOSh), the e/n worked out at 9.06. The IC50 in assay [2] (setting [4]) worked out at 5.62 µM; in assay [3] (setting [5]), 50.9 µM.
Take `N=C(Nc1ccc2[nH]cc(-c3ccncc3)c2c1)c1cccs1` [Compound 73, N-(3-(pyridin-4-yl)-1H-indol-5-yl)thiophene-2-carboximidamide]: the e/n in assay [2] (Table I, ratio eNOSh/nNOSh) was 19.7. The IC50 in assay [2] (setting [4]) came out at 2.2 µM; in assay [3] (setting [5]), 43.4 µM.
Turning to `CSC(=N)Nc1ccc2[nH]cc(C3=CCN(C)CC3)c2c1` [Compound 75, Methyl 3-(1-methyl-1,2,3,6-tetrahydropyridin-4-yl)-1H-indol-5-ylcarbamimidothioate], the e/n in assay [2] (Table I, ratio eNOSh/nNOSh) is on record as 16.0. Also, the IC50 in assay [2] (setting [4]) worked out at 2.25 µM; in assay [3] (setting [5]), 36.1 µM.
Take `N=C(Nc1ccc2[nH]cc(C3CCN(C(=N)c4cccs4)CC3)c2c1)c1cccs1` [Compound 77, N-(3-(1-(imino(thiophen-2-yl)methyl)piperidin-4-yl)-1H-indol-5-yl)thiophene-2-carboximidamide]: the e/n in assay [2] (Table I, ratio eNOSh/nNOSh) came out at 6.19. In addition, the IC50 in assay [2] (setting [4]) is 0.717 µM; in assay [3] (setting [5]), 4.44 µM.
For `N=C(Nc1ccc2[nH]cc(C3CCNCC3)c2c1)c1cccs1` [Compound 88, N-(3-(piperidin-4-yl)-1H-indol-5-yl)thiophene-2-carboximidamide] the same measures were 8.5, 9.23 µM and 78.1 µM.
For `CN1C2C=C(c3c[nH]c4ccc(NC(=N)c5cccs5)cc34)CC1CC2` (stereo not drawn) [Compound 90, N-(3-(8-methyl-8-azabicyclo[3.2.1]oct-3-en-3-yl)-1H-indol-5-yl)thiophene-2-carboximidamide], in that order: 20.3, 3.35 µM and 67.9 µM.
Regarding `CNC1CC=C(c2c[nH]c3ccc(NC(=N)c4cccs4)cc23)CC1` (stereo not drawn) [Compound 100, N-(3-(4-(methylamino)cyclohex-1-enyl)-1H-indol-5-yl)thiophene-2-carboximidamide], in assay [2] (Table I, ratio eNOSh/nNOSh), the e/n worked out at 18.5. Besides, the values for the IC50 in assay [2] (setting [4]) and in assay [3] (setting [5]) were 1.73 µM and 32 µM, respectively.
Regarding `CN1CCC[C@@H]1Cc1c[nH]c2ccc(NC(=N)c3ccco3)cc12` [Compound 106, (R)-N-(3-((1-Methylpyrrolidin-2-yl)methyl)-1H-indol-5-yl)furan-2-carboximidamide], the e/n in assay [2] (Table I, ratio eNOSh/nNOSh) stood at 13.0. Besides, the IC50 in assay [2] (setting [4]) came to 2.08 µM; in assay [3] (setting [5]), 27.1 µM.
As to `CN1CCC[C@H]1Cc1c[nH]c2ccc(NC(=N)c3ccco3)cc12` [Compound 107, (S)-N-(3-((1-methylpyrrolidin-2-yl)methyl)-1H-indol-5-yl)furan-2-carboximidamide], in assay [2] (Table I, ratio eNOSh/nNOSh), the e/n amounted to 9.9. In addition, the values for the IC50 in assay [2] (setting [4]) and in assay [3] (setting [5]) were 2.52 µM and 24.9 µM, respectively.
`CN(C)C1CC=C(c2c[nH]c3ccc(NC(=N)c4cccs4)cc23)CC1` (stereo not drawn) [Compound 114, N-(3-(4-(dimethylamino)cyclohex-1-enyl)-1H-indol-5-yl)thiophene-2-carboximidamide]: the e/n in assay [2] (Table I, ratio eNOSh/nNOSh) worked out at 17.1. Also, the IC50 in assay [2] (setting [4]) turned out to be 3 µM; in assay [3] (setting [5]), 51.4 µM.
`N=C(Nc1ccc2ccn(CCc3ccccc3)c2c1)c1cccs1` [Compound 115]: the e/n in assay [2] (Table II, ratio eNOSh/nNOSh) is listed as over 8.3. In addition, the figures for the IC50 in assay [2] (read-out: nNOSh) and in assay [3] (read-out: eNOSh) were 12 µM and over 100 µM, respectively.
For the compound `CN(C)C1CCC(c2c[nH]c3ccc(NC(=N)c4cccs4)cc23)CC1` (stereo not drawn) [Compound 116, N-(3-(4-(dimethylamino)cyclohexyl)-1H-indol-5-yl)thiophene-2-carboximidamide], the e/n in assay [2] (Table I, ratio eNOSh/nNOSh) was 9.2. In assay [3] (setting [5]), the IC50 turned out to be 31.8 µM.
In the case of `N=C(Nc1ccc2[nH]cc(C3CN4CCC3CC4)c2c1)c1cccs1` (stereo not drawn) [Compound 126, N-(3-(quinuclidin-3-yl)-1H-indol-5-yl)thiophene-2-carboximidamide], the e/n in assay [2] (Table I, ratio eNOSh/nNOSh) was determined as 30.9. Also, the IC50 in assay [2] (setting [4]) amounted to 1.04 µM; in assay [3] (setting [5]), 32.1 µM.
For `N=C(Nc1ccc2[nH]cc(C3CN4CCC3CC4)c2c1)c1ccco1` (stereo not drawn) [Compound 127, N-(3-(quinuclidin-3-yl)-1H-indol-5-yl)furan-2-carboximidamide] the same measures were 25.3, 2.6 µM and 66 µM.
For `CN1CC=C(c2c[nH]c3ccc(NC(=N)c4cccs4)cc23)C(F)C1` (stereo not drawn) [Compound 134, N-(3-(3-fluoro-1-methyl-1,2,3,6-tetrahydropyridin-4-yl)-1H-indol-5-yl)thiophene-2-carboximidamide] the same measures were 51.4, 2.78 µM and 143 µM.
In the case of `N=C(Nc1ccc2ccn(CCN3CCCCC3)c2c1)c1cccs1` [Compound 136], the e/n in assay [2] (Table II, ratio eNOSh/nNOSh) worked out at 7.8. In addition, the IC50 in assay [2] (setting [6]) was determined as 0.49 µM; in assay [3] (setting [7]), 3.8 µM.
For `CN1CCC[C@@H]1CCn1ccc2ccc(NC(=N)c3cccs3)cc21` [Compound 138], in that order: 50, 0.32 µM and 16 µM.
For `CN1CCC[C@H]1CCn1ccc2ccc(NC(=N)c3cccs3)cc21` [Compound 139] the same measures were 120, 0.2 µM and 24 µM.
In the case of `CN1CCCC(n2ccc3ccc(NC(=N)c4cccs4)cc32)CC1` (stereo not drawn) [Compound 156], in assay [2] (Table II, ratio eNOSh/nNOSh), the e/n amounted to 42.5. For the same compound, the IC50 in assay [2] (setting [6]) worked out at 0.87 µM; in assay [3] (setting [7]), 37 µM.
Take `CN(C)CCCn1ccc2ccc(NC(=N)c3cccs3)cc21` [Compound 157, N-(1-(3-(dimethylamino)propyl)-1H-indol-6-yl)thiophene-2-carboximidamide]: the e/n in assay [2] (Table II, ratio eNOSh/nNOSh) is 41.1. Also, the IC50 in assay [2] (setting [6]) is 0.7 µM; in assay [3] (setting [7]), 28.3 µM.
`CCN(CC)CCCn1ccc2ccc(NC(=N)c3cccs3)cc21` [Compound 158]: the e/n in assay [2] (Table II, ratio eNOSh/nNOSh) is 17.2. In addition, the IC50 is 0.59 µM in assay [2] (setting [6]) and 10.2 µM in assay [3] (setting [7]).
For `CN(C)CCCn1ccc2ccc(NC(=N)c3cccs3)cc21` [Compound 160], the e/n in assay [2] (Table II, ratio eNOSh/nNOSh) came to 2.11. The IC50 in assay [2] (setting [6]) came out at 2.73 µM; in assay [3] (setting [7]), 5.77 µM.
For `CNCCCn1ccc2ccc(NC(=N)c3cccs3)cc21` [Compound 161], in that order: 5.57, 1.78 µM and 9.91 µM.
In the case of `CN1CCCC1CCn1c(Cc2ccccc2)cc2ccc(NC(=N)c3cccs3)cc21` (stereo not drawn) [Compound 162], the e/n in assay [2] (Table II, ratio eNOSh/nNOSh) was found to be 14.3. The IC50 was 2.3 µM in assay [2] (setting [6]) and 33 µM in assay [3] (setting [7]).
`N=C(Nc1ccc2ccn(CCCCn3ccnc3)c2c1)c1cccs1` [Compound 167]: in assay [2] (Table II, ratio eNOSh/nNOSh), the e/n came out at 3.74. Besides, the IC50 in assay [2] (setting [6]) came out at 1.22 µM; in assay [3] (setting [7]) it was 4.56 µM.
On to `N=C(Nc1ccc2ccn(CCCCn3ccnc3)c2c1)c1cccs1` [Compound 168, N-(1-(4-(1H-imidazol-1-yl)butyl)-1H-indol-6-yl)thiophene-2-carboximidamide], for which, in assay [2] (Table II, ratio eNOSh/nNOSh), the e/n is listed as 9.6. Besides, the figures for the IC50 in assay [2] (setting [6]) and in assay [3] (setting [7]) were 0.26 µM and 2.53 µM, respectively.
For `N=C(Nc1ccc2ccn(CCCN3CCOCC3)c2c1)c1ccsc1` [Compound 182] the same measures were 12.1, 1.4 µM and 17 µM.
As for `N=C(Nc1ccc2ccn(CCCN3CCOCC3)c2c1)c1ccco1` [Compound 183], the e/n in assay [2] (Table II, ratio eNOSh/nNOSh) was 14.2. The figures for the IC50 in assay [2] (setting [6]) and in assay [3] (setting [7]) were 2.4 µM and 34 µM, respectively.
For `N=C(Nc1ccc2ccn(CCCN3CCOCC3)c2c1)c1ccoc1` [Compound 184], in that order: 19, 1 µM and 19 µM.

The values above are taken from patent US8586620B2, “Substituted indole compounds having NOS inhibitory activity” (NeurAxon, Inc., priority 2005, dated 2013).
